Literature values as cited in patent US20210040357A1, “ELECTROCONDUCTIVE ADHESIVE COMPOSITION, CURED PRODUCT OF ELECTROCONDUCTIVE ADHESIVE, AND ELECTRONIC DEVICE” (TANAKA KIKINZOKU KOGYO K.K., priority 2018, published 2021).

| SMILES | Acid dissociation constant pKa |
| --- | --- |
| CC(C)C1=CC2=CC[C@@H]3[C@](C)(CCC[C@@]3(C)C(=O)O)[C@H]2CC1 [Abietic acid] | 4.64 |
| CCCCCCCCCCCCCCCCCC(=O)O [Stearic acid] | about 5.0 |
| CCCCCCCC/C=C\CCCCCCCC(=O)O [oleic acid] | about 5.0 |
